Assay results: patent US4225593A, “Growth promotion” (Imperial Chemical Industries Limited, priority 1977, dated 1980)

What was measured:
[1] = system: rumen fluid; assay: Inhibition of methane production and shift of volatile fatty acids in incubated rumen fluid (in vitro fermentation of hay); design: species or system steers; conditions: for % methane in total gas: 39° C., 15-16 hours, control 8.37; for Ac/Bu: acetate/butyrate, control 3.92; for Ac/Pr: acetate/propionate, control 1.90; for % inhibition of methane / Ac/Bu, expressed as percentage of untreated controls / Ac/Pr, expressed as percentage of untreated controls: relative to untreated controls; for Ac/Bu, expressed as percentage of untreated controls / Ac/Pr, expressed as percentage of untreated controls: signed values
Method: Rumen fluid is collected on a regular routine basis from two steers, which are fed on the same hay-plus-concentrate diet. Sampling time is standarised as far as possible, and the fluid from the two animals is pooled on a 50/50 basis. Large particulate matter is removed by filtering the pooled fluid through four layers of muslin cloth. The filtrate is then diluted in the ratio of one volume of filtrate to three volumes of an artificial rumen fluid (prepared as described by G. L. Bales et al., Journal of Diary Science, 1976, volume 59, page 1850, but omitting acetic acid), and the pH of the mixture is adjusted to 6.9-7.0 with saturated aqueous sodium carbonate solution. Aliquots (50 ml.) of this mixture are dispensed into 100 ml. conical flasks containing dried ground hay (0.5 g.), and each flask is used to test a test compound at a particular concentration.
The test compound is added to the conical flask as a solution in ethanol, the flask is flushed with carbon dioxide gas, stoppered with a suba-seal, and incubated at 39° C. for 15-16 hours. After one hour, a narrow bore needle is inserted through the suba-seal to relieve the gas pressure, and the needle is withdrawn 30 minutes before the incubation is ended. Fermentation is then stopped by placing the flask in ice, and after 15 minutes cooling, the gas over the liquid is analysed for methane by gas chromatrography. The flask contents are then filtered through a previously dried and weighed sintered glass funnel, the funnel is oven-dried and, by difference, the weight of hay digested is determined. (Blank flasks containing no hay are treated similarly to determine non-cellulose residue). Three samples of the filtrate are analysed by gas chromatography for VFAs, and by comparison with the previously determined, pre-incubationlevel of VFAs, the net VFAs (acetate, propionate and butyrate) produced during the incubation is determined.
The test process described in Example 2 was repeated, comparing aplasmomycin with Factor B and C. The following results were obtained, expressed as percentages of the values obtained in untreated controls: […]

[2] = system: rumen metabolism of sheep; assay: Short term effects on the rumen metabolism of sheep (rumen V.F.A. composition); assay type: in vivo; conditions: 6 hours after treatment
Method: The rumen fermentation patterns of a group of sheep were stabilised by feeding them a standard diet of dried grass (2×500 g. per day) for some months. Six test animals were used for each inclusion level of each test compound. […] Samples of rumen fluid were collected by stomach tube from each animal 6 hours after treatment, and analysed by gas-chromatography for acetate, propionate and butyrate.

[3] = system: Eimeria tenella; assay: Anticoccidial activity: preventing coccidial growth in cultures of chick kidney cells inoculated with sporozites; assay type: cell-based; conditions: for anticoccidial activity (in words): cultures of chick kidney cells
[4] = system: chick kidney cells; assay: Toxic effects on the host cells (chick kidney cells) in the anticoccidial test; assay type: cell-based; conditions: only shows toxic effects at this concentration
[5] = Day 4, 0.25 mg/kg, control 10.2
[6] = Day 4, 0.25 mg/kg, control 24.0
[7] = Day 4, 0.25 mg/kg, control 64.5
[8] = Day 7, 0.25 mg/kg, control 10.7
[9] = Day 7, 0.25 mg/kg, control 22.9
[10] = Day 7, 0.25 mg/kg, control 65.6

Row | Compound | % methane in total gas ([1]; 0.1 μg./ml.) [%] | Ac/Bu ([1]; 0.1 μg./ml.) | % inhibition of methane ([1]; 1 ppm) [%] | Ac/Bu, expressed as percentage of untreated controls ([1]; 1 ppm) | Ac/Pr, expressed as percentage of untreated controls ([1]; 1 ppm) [percentages] | % inhibition of methane ([1]; 3 ppm) [%] | Ac/Bu, expressed as percentage of untreated controls ([1]; 3 ppm) | Ac/Pr, expressed as percentage of untreated controls ([1]; 3 ppm) [percentages] | Molar % rumen V.F.A.: Butyrate [2, 5] [Molar %] | Molar % rumen V.F.A.: Propionate [2, 6] [Molar %] | Molar % rumen V.F.A.: Acetate [2, 7] [Molar %] | Molar % rumen V.F.A.: Butyrate ([2]; Day 4, 0.5 mg/kg, control 10.2) [Molar %] | Molar % rumen V.F.A.: Propionate ([2]; Day 4, 0.5 mg/kg, control 24.0) [Molar %] | Molar % rumen V.F.A.: Acetate ([2]; Day 4, 0.5 mg/kg, control 64.5) [Molar %] | Molar % rumen V.F.A.: Butyrate [2, 8] [Molar %] | Molar % rumen V.F.A.: Propionate [2, 9] [Molar %] | Molar % rumen V.F.A.: Butyrate ([2]; Day 7, 0.5 mg/kg, control 10.7) [Molar %] | Molar % rumen V.F.A.: Propionate ([2]; Day 7, 0.5 mg/kg, control 22.9) [Molar %] | Molar % rumen V.F.A.: Acetate ([2]; Day 7, 0.5 mg/kg, control 65.6) [Molar %] | anticoccidial activity (in words) [3] | other results
1 | C[C@@H]1CC[C@@H]2O[C@]13O[B-]14O[C@H]3C(=O)O[C@H]3C[C@@H](/C=C/C[C@@H](O)C(C)(C)[C@@H]5CC[C@@H](C)[C@](O5)(O1)[C@@H](O4)C(=O)O[C@H]1C[C@@H](/C=C/C[C@@H](O)C2(C)C)O[C@@H]1C)O[C@@H]3C.[Na+] [Aplasmomycin, aplasmomycin] | 7.87 | 4.22 | 57 | -36 percentages | -41 | 69 | -49 percentages | -40 | 9.8 | 25.1 | 63.7 | 9.9 | 25.5 | 63.4 | 9.9 | 24.8 | 9.2 | 26.6 | 62.6 | show anticoccidial activity | Ac/Pr ([1]; 0.1 μg./ml.): 1.63; % methane in total gas ([1]; 0.3 μg./ml.): 5.72%; Ac/Bu ([1]; 0.3 μg./ml.): 4.75; Ac/Pr ([1]; 0.3 μg./ml.): 1.36; % methane in total gas ([1]; 0.5 μg./ml.): 4.87%; Ac/Bu ([1]; 0.5 μg./ml.): 4.56; Ac/Pr ([1]; 0.5 μg./ml.): 1.29; % methane in total gas ([1]; 1 μg./ml.): 3.81%; Ac/Bu ([1]; 1 μg./ml.): 4.26; Ac/Pr ([1]; 1 μg./ml.): 1.26; % methane in total gas ([1]; 3 μg./ml.): 2.58%; Ac/Bu ([1]; 3 μg./ml.): 3.52; Ac/Pr ([1]; 3 μg./ml.): 1.34; effect on the overall digestive process (in words) ([1]; rumen fluid, weight of hay digested): without at the same time depressing the overall digestive process; Molar % rumen V.F.A.: Acetate [2, 10]: 63.8 Molar %; concentration showing activity against Eimeria tenella ([3]; cultures of chick kidney cells inoculated with sporozites): 0.037 ppm; concentration showing toxic effects on the host cells [4]: 9 ppm
2 | CC(=O)OC1C/C=C/C2CC(OC(=O)C3O[B-]45OC(C(=O)OC6CC(/C=C/CC(O)C(C)(C)C7CCC(C)C3(O7)O4)OC6C)C3(OC(CCC3C)C1(C)C)O5)C(C)O2 (centres unmarked) [Factor B] |  |  | 63 | +21 percentages | -48 | 76 | -18 percentages | -45 | 11.3 | 22.3 | 65.1 | 11.3 | 22.4 | 65.0 | 11.7 | 22.1 | 8.9 | 25.9 | 63.5 | show anticoccidial activity | Molar % rumen V.F.A.: Acetate [2, 10]: 63.5 Molar %
3 | CC(=O)OC1C/C=C/C2CC(OC(=O)C3O[B-]45OC(C(=O)OC6CC(/C=C/CC(OC(C)=O)C(C)(C)C7CCC(C)C3(O7)O4)OC6C)C3(OC(CCC3C)C1(C)C)O5)C(C)O2 (centres unmarked) [Factor C] |  |  | 15 | +18 percentages | -33 | 44 | +22 percentages | -41 |  |  |  |  |  |  |  |  |  |  |  | show anticoccidial activity | 
4 | CC[C@@]1([C@@H]2O[C@@H]([C@H]3O[C@@](O)(CO)[C@H](C)C[C@@H]3C)C[C@@H]2C)CC[C@H]([C@]2(C)CC[C@]3(C[C@H](O)[C@@H](C)[C@@H]([C@@H](C)[C@@H](OC)[C@H](C)C(=O)O)O3)O2)O1 [Monensin, monensin, reference compound] | 8.35 | 4.22 |  |  |  |  |  |  | 9.9 | 28.5 | 60.5 | 11.3 | 27.8 | 59.8 | 11.4 | 26.1 | 12.6 | 26.2 | 60.2 |  | Ac/Pr ([1]; 0.1 μg./ml.): 1.80; % methane in total gas ([1]; 0.3 μg./ml.): 7.53%; Ac/Bu ([1]; 0.3 μg./ml.): 4.11; Ac/Pr ([1]; 0.3 μg./ml.): 1.65; % methane in total gas ([1]; 0.5 μg./ml.): 6.75%; Ac/Bu ([1]; 0.5 μg./ml.): 4.03; Ac/Pr ([1]; 0.5 μg./ml.): 1.61; % methane in total gas ([1]; 1 μg./ml.): 5.62%; Ac/Bu ([1]; 1 μg./ml.): 3.21; Ac/Pr ([1]; 1 μg./ml.): 1.51; % methane in total gas ([1]; 3 μg./ml.): 4.53%; Ac/Bu ([1]; 3 μg./ml.): 3.39; Ac/Pr ([1]; 3 μg./ml.): 1.54
